The text below walks through data of ChEMBL document CHEMBL1156829 (Proc Natl Acad Sci U S A, 2008).

Molecules are shown by their SMILES.

Data set [1] deals with Plasmodium falciparum. The data set can be described thus: NOVARTIS: Inhibition of Plasmodium falciparum W2 (drug-resistant) proliferation in erythrocyte-based infection assay. The settings on record: Plasmodium falciparum, W2; read-out: EC50. The class given is functional, organism-based.
Data set [2] deals with Plasmodium falciparum. The data set can be described thus: NOVARTIS: Inhibition of Plasmodium falciparum 3D7 (drug-susceptible) proliferation in erythrocyte-based infection assay. The settings on record: Plasmodium falciparum, 3D7. The class given is functional, organism-based.
A short description of data set [3]: NOVARTIS: Cytotoxicity against human hepatocellular carcinoma cell line (Huh7). To be noted: Huh7 cells (hepatocellular carcinoma cell line). It is filed as toxicity, cell-based, Huh-7.

For orientation: EC50 means the midpoint of the concentration-response curve. One may read the CC50 as the concentration giving 50% cytotoxicity. A high value points to better tolerance by the cells. Regarding `COc1cc(/C=C2\CC/C(=C\c3cc(OC)c(OC)c(OC)c3)C2=O)cc(OC)c1OC`, the EC50 in data set [1] stood at 457 nM; in data set [2], 458 nM. For the same molecule, the midpoint of cytotoxicity in data set [3], the CC50, lay at 873 nM.

For `OCCCNc1cc(-c2ccnc(Nc3cccc(Cl)c3)n2)ccn1`, the EC50 in data set [1] turned out to be 186 nM; in data set [2], 232 nM. Besides, the CC50 in data set [3] was 269 nM.

With `Cc1cc(Nc2cc3ccccc3cc2O)n2ncnc2n1`, the EC50 in data set [1] was 1290 nM; in data set [2], 1340 nM. The same molecule gave a 50% cytotoxic concentration (CC50) in data set [3] of 1750 nM.

Consider `CCOc1ccc(Nc2nc(N)c3ccccc3n2)cc1`, for which the EC50 in data set [1] stood at 1580 nM; in data set [2], 862 nM. Further, the half-maximal cytotoxic concentration (CC50) in data set [3] was 2370 nM.

Take `Cc1ccc(Cl)cc1-n1c(SCc2ccccc2)nnc1C(Cc1ccccc1)NC(=O)C12CC3CC(CC(C3)C1)C2` (stereo not given): the EC50 is over 954 nM in data set [1] and over 1250 nM in data set [2]. This molecule also showed a CC50 in data set [3] of 1130 nM.

As for `CC(C)c1cccc(C(C)C)c1NC(=O)N(Cc1ccccc1)C(C)c1nc2ccccc2c(=O)n1-c1ccc(Cl)cc1` (stereo not given), the half-maximal effective concentration (EC50) in data set [1] is 1020 nM; in data set [2], 985 nM. The cytotoxic concentration (CC50) in data set [3] was over 1460 nM.

Consider `CCN(CC)CCN1C(=O)c2ccc3c4c(ccc(c24)C1=O)C(=O)N(CCN(CC)CC)C3=O`, for which the values for the EC50 in data set [1] and in data set [2] were 136 nM and 244 nM, respectively. This molecule also showed a CC50 in data set [3] of 221 nM.

In the case of `Cc1ccc(S(=O)(=O)N2CCN(C(=O)c3ccccc3)C2c2ccccc2)cc1` (stereo not given), the values for the concentration for a half-maximal effect (EC50) in data set [1] and in data set [2] were 6290 nM and over 12500 nM, respectively. In addition, the CC50 in data set [3] is 10600 nM.

For the molecule `CCCCCN(C(=O)CCc1ccccc1)C(CC)c1nc2ccccc2c(=O)n1-c1ccc(Cl)cc1C` (stereo not given), the EC50 in data set [1] was 1740 nM; in data set [2], over 1000 nM. Besides, the cytotoxic concentration (CC50) in data set [3] is over 305 nM.

Regarding `Cc1noc(C)c1S(=O)(=O)N(CC(C)C)C(C(=O)NC(CN1CCCC1)c1ccccc1)c1ccccc1` (stereo not given), the EC50 was 1660 nM in data set [1] and 775 nM in data set [2]. This molecule also registered a 50% cytotoxic concentration (CC50) in data set [3] of 2820 nM.

Turning to `Cc1cccc(OCC(O)CN2CCN(CC(=O)c3ccc(Br)cc3)CC2)c1` (stereo not given), the values for the EC50 in data set [1] and in data set [2] were 896 nM and over 1250 nM, respectively. The same molecule returned a CC50 in data set [3] of 214 nM.

`COc1cc(C(=O)N2C(C(=O)Nc3ccccc3F)CSC2c2ccc(C(C)(C)C)cc2)cc(OC)c1OC` (stereo not given): the half-maximal effective concentration (EC50) in data set [1] was 1280 nM; in data set [2], 1040 nM. In data set [3], this molecule returned a CC50 of over 2310 nM.

On to `Cc1ccc(C(=O)Nc2ccc(-c3nc4ccc(NC(=O)c5ccc(C)cc5)cc4[nH]3)cc2)cc1`, for which the concentration giving a half-maximal response (EC50) was over 5780 nM in data set [1] and 1570 nM in data set [2]. The 50% cytotoxic concentration (CC50) in data set [3] amounted to 1890 nM.

On to `COc1ccc(SC2CCN(C3CCOCC3)CC2)cc1`, for which the EC50 is 358 nM in data set [1] and over 1470 nM in data set [2]. In data set [3], this molecule had a half-maximal cytotoxic concentration (CC50) of 240 nM.

Turning to `O=C(Nc1cc(Cl)cc(Cl)c1)Nc1cccc(C(F)(F)F)c1`, the EC50 in data set [1] was over 12500 nM; in data set [2], 13.8 nM. Also, the cytotoxic concentration (CC50) in data set [3] is 14900 nM.

As to `Cc1ccccc1N(CC(=O)NCC1CCCO1)C(=O)c1snc(C(N)=O)c1N` (stereo not given), the EC50 in data set [1] is over 1250 nM; in data set [2], over 706 nM. The CC50 in data set [3] is over 2400 nM.

`COc1ccc(Nc2nc3nonc3nc2NN=Cc2cc(Cl)ccc2O)cc1`: the values for the EC50 in data set [1] and in data set [2] were 1620 nM and 1780 nM, respectively. In addition, in data set [3], the half-maximal cytotoxic concentration (CC50) is over 3170 nM.

`CC(=O)N(C)C1=C(N2CCOCC2)C(=O)c2ccccc2C1=O`: the EC50 came out at 288 nM in data set [1] and 254 nM in data set [2]. For the same molecule, the CC50 in data set [3] worked out at 590 nM.

For the molecule `Nc1nc(N)c2cc(S(=O)(=O)N3CCCCC3)ccc2n1`, the EC50 in data set [1] was over 1250 nM; in data set [2], 20.2 nM. The same molecule returned a CC50 in data set [3] of 2670 nM.

Regarding `Oc1ccc(C=NN=C(Nc2ccccn2)c2ccccn2)c(O)c1`, the figures for the concentration giving a half-maximal response (EC50) in data set [1] and in data set [2] were over 674 nM and over 1250 nM, respectively. Moreover, the half-maximal cytotoxic concentration (CC50) in data set [3] is over 245 nM.

On to `Cn1ncnc2c(=O)n(C)c(=O)nc1-2`, for which the EC50 in data set [1] is 481 nM; in data set [2] it was over 12500 nM. In addition, in data set [3], the half-maximal cytotoxic concentration (CC50) was found to be 199 nM.

For the molecule `COc1cnc(-c2ccccn2)nc1NC(C)C`, the values for the EC50 in data set [1] and in data set [2] were 1100 nM and 712 nM, respectively. In data set [3], the midpoint of cytotoxicity, the CC50, lay at 2500 nM.

For `COc1ccc(CCN(C(=S)Nc2ccccc2)C2CC(=O)N(c3ccc(F)cc3)C2=O)cc1OC` (stereo not given), the EC50 was 1560 nM in data set [1] and over 1740 nM in data set [2]. The half-maximal cytotoxic concentration (CC50) in data set [3] is over 1910 nM.

Consider `CCc1nc2ccc(NC(=O)c3ccncc3)cc2c(=O)n1Cc1cccc(OC)c1`, for which the results for the concentration for a half-maximal effect (EC50) in data set [1] and in data set [2] were 427 nM and 1570 nM, respectively. In data set [3], the CC50 is over 570 nM.

Turning to `CC1=C(CO)C(=O)O[C@@H]([C@@H](C)[C@H]2CC[C@H]3[C@@H]4C[C@H]5O[C@]56[C@@H](O)C=CC(=O)[C@]6(C)C4CC[C@]23C)C1` (stereo not given in full), the results for the concentration giving a half-maximal response (EC50) in data set [1] and in data set [2] were 1680 nM and 4970 nM, respectively. In data set [3], this molecule returned a CC50 of 3630 nM.
